Source: patent US4937245A, “Bisphenylalkylpiperazine derivatives, a method of their preparation and a pharmaceutical preparation” (priority 1987, dated 1990)

Assays:
[1] = system: amphetamine-induced hypermotility in mice; experiment: Antagonism of amphetamine-induced hypermotility in mice (Test 1); format: in vivo; settings: Mus musculus, sc, 1.5 h, test compound s.c., d-amphetamine 2 mg/kg i.p., locomotor activity 90 min, dose reducing motility to midpoint between amphetamine and saline controls
Experimental: Antagonism of amphetamine-induced hypermotility in mice
A low dose (2 mg/kg) of d-amphetamine administered to mice induced pronounced locomotor activity.
Female NMRI-mice, weighing about 25 g are divided into groups of 4 animals and placed in macrolon cages. The cages are placed on recording arenas in nine sound attenuated boxes with constant light and ventilation. After a familiarization period of 90 minutes the mice are brought up from the cages and treated in the following way; one control group receives saline i.p., one control group receives d-amphetamine sulphate, 2 mg/kg i.p. and test animals are treated s.c. with three different doses of the test compound and immediately thereafter with d-amphetamine 2 mg/kg i.p. Immediately after the administration the macrolon cages with the mice are put back into the test boxes and a computerized equipment records the locomotor activity in the cages for 90 minutes.
For each test compound 4 cages are treated with saline, 4 cages with only d-amphetamine and 6 cages/dose test compound+d-amphetamine. This is the total of three different experiments.
For each treatment group the mean number of counts during 90 minutes following the administration is calculated.
The ED50 -value (mg/kg) is calculated from the dose-response curve by means of linear regression. […]

D2-receptors = target: T1, D2-receptors (Rattus norvegicus, UniProt P61169); experiment: Affinity to D2-receptors, 3H-spiroperidol ligand (Test 2); format: binding; settings: 3H-spiroperidol as ligand
T1 construct: from tissue; host or cells: brain membranes
T1 sequence (P61169 whole entry): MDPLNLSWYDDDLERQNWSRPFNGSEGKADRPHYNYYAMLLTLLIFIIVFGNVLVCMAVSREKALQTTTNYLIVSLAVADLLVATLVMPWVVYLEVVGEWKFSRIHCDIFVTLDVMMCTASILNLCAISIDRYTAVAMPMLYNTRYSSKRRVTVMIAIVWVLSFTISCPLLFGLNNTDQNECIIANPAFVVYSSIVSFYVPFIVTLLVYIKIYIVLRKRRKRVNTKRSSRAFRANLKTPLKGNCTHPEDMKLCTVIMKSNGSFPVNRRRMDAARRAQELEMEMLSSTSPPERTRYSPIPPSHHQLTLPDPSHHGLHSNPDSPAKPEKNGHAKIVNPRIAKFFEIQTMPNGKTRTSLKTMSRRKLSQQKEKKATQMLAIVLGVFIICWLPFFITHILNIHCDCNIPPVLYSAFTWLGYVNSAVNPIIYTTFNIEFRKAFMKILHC
Experimental: Affinity to D2 -receptors
The binding assay is carried out essentially as described by Leysen et al., (Mol. Pharmacol. 21, 301-14, 1982) using ^3 H-spiroperidol as ligand.

5HT2-receptors = target: T2, 5HT2-receptors (Rattus norvegicus, UniProt P14842); experiment: Affinity to 5HT2-receptors, 3H-ketanserine ligand (Test 3); format: binding; settings: 3H-ketanserine as ligand
T2 construct: from tissue; host or cells: brain membranes
T2 sequence (P14842 whole entry): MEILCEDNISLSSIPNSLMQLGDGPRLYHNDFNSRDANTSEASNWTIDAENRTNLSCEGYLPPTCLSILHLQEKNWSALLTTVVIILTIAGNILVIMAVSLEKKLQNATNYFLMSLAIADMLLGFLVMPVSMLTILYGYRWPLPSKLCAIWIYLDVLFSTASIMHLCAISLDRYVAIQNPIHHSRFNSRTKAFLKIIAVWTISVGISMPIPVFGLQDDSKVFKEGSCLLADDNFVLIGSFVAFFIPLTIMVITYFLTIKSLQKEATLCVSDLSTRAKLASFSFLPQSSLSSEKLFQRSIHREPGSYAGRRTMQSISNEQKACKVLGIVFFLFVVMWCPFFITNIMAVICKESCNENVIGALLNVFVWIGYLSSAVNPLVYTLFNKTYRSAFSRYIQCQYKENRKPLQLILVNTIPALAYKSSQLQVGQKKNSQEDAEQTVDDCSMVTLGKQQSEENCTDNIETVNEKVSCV
Experimental: Affinity to 5HT2 -receptors
The binding assay is carried out essentially as described by Leysen et al., (Mol. Pharmacol. 21, 301-14, 1982) using ^3 H-ketanserine as ligand.

5-HT2 binding site = settings: background statement on known drugs; cited from earlier work

SMILES	ED50 [1] [mg/kg]	Ki (D2-receptors) [nM]	Ki (5HT2-receptors) [nM]	5HT2 blocking potency / binding site preference (5-HT2 binding site)
NC(=O)c1cccnc1N1CCN(CCCC(c2ccc(F)cc2)c2ccc(F)cc2)CC1 [1:6, 4-[4,4-bis(p-fluorophenyl)butyl]-1-(3-carbamoyl-2-pyridyl)piperazine]	0.3	30	2.1	
Fc1ccc(C(CCCN2CCCN(c3ccccn3)CC2)c2ccc(F)cc2)cc1 [1:15, 4-[4,4-bis(p-fluorophenyl)butyl]-1-(2-pyridyl)-(1,4-diaza-cycloheptane)]		25	1.3	
Fc1ccc(C(CCCN2CCN(c3ccccn3)CC2)c2ccc(F)cc2)cc1 [3:1, 4-[4,4-bis(p-fluorophenyl)butyl]-1-(2-pyridyl)-piperazine]	0.1	60	5.8	
Cc1nc2sccn2c(=O)c1CCN1CCC(=C(c2ccc(F)cc2)c2ccc(F)cc2)CC1 [ritanserine]				labels preferentially the 5-HT2 binding site
